# In patent publication US12486255B2, “Modulators of RAS GTPase” (Tosk, Inc., priority 2018, dated 2025):
# What was measured:
# [1] = Multi-day safety study in mice; assay type: in vivo; conditions: female CD1 mice, 2 mg/kg ip daily for 6 days
# Procedure: The multi-day safety study used female, 10 week old, CD1 mice (4/treatment group) dosed with DMSO. Mice were administered 2 mg/kg of Structure 2 or 10 mg/kg Structure 3, ip, daily for 6 days and evaluated for changes clinical chemistry values, hematology values and animal weight as well as signs of health and grooming habits.
# Heparinized blood samples were obtained by retro-orbital puncture on Day 6, 12 hours after the last dose of Structure 2. The plasma harvested from the blood was analyzed for standard clinical chemistry parameters (ALB. ALP, ALT, AMY, TBIL, BUN, CA, PHOS, CRE GLU, NA, K, TP & GLOB) and hematology (WBC, LYM, MON, GRA, RBC, HGB, HCT, MCV, MCH, MCHC, RDWc, PLT, PCT, MPV, PDWc) analytes (see definitions herein). Animal weight changes were also monitored. Values for all analytes were analyzed by one way ANOVA plus post-hoc Bonferroni using SPSS (IBM, Armonk, NY).
# [2] = tested on: Capan-1 cells; assay: Cytotoxicity assay, CellTiter-Glo 2.0, Capan-1 cells; assay type: cell-based; conditions: Capan 1, human pancreatic cancer cell line expressing kRAS G12V; 48 hours
# Procedure: FIG. 5, panels A-B, illustrates the cytotoxicity of Structure 2 and Structure 3 on Capan-1 cells. The cytotoxicity of compounds of interest were tested against the human pancreatic cancer cell line Capan-1 as described in the experimental section. Capan-1 cells express a mutant G12V kRAS. Compounds were incubated with cells for 48 hours and the assay was developed using Cell Titer Glo 2.0. IC50 vales were determined using GraphPad Prism 4.
# (§1) Compounds were assayed for inhibition of cell proliferation and killing cancer cells. Cytotoxicity assays were conducted according to the following general procedure. SW480, SW48, SW900, SW620 were all maintained in Leibowitz L15 media supplemented with 10% fetal bovine serum and 1% PenStrep and grown in a 37° C. incubator without supplemental CO2. Capan-1 cells were maintained in Iscove's Modified Dulbecco's Medium (ATCC 30-2005) containing 20% fetal bovine serum and 1% PenStrep and grown in a 37° C. incubator containing 5% CO2.
# (§2) For dose-response assays, SW480 cells were plated into 96 well plates (1 million/plate, ˜10,000/well, 250 μL media/well). Cells were allowed to settle and adhere to plate bottom overnight Compounds were placed in 500 μL media and mixed. Then 250 μL compounds+media was placed in an intermediate plate in row A. Rows B through H were filled with 125 μL media. […] Luminescence was read with FLx800 (BioTek Instruments).
# [3] = tested on: SW620 cells; assay: Cytotoxicity assay, CellTiter-Glo 2.0, SW620 cells; assay type: cell-based; conditions: SW-620; SW620, human colon cancer cell line expressing mutant G12V kRAS; 48 hours
# Procedure: FIG. 6, panels A-B, illustrate the cytotoxicity of Structure 2 and Structure 3 on SW620 Cells. The cytotoxicity of compounds of interest were tested against the human colon cancer cell line SW620 as described in the experimental section. SW620 cells express a mutant G12V kRAS. Compounds were incubated with cells for 48 hours and the assay was developed using Cell Titer Glo 2.0. IC50 values were determined using GraphPad Prism4.
# as §1, §2
# [4] = Pharmacokinetic study in mice; assay type: in vivo; conditions: ip, 3 mg/kg, CD-1 mice, 3 mg/kg
# Procedure: Pharmacokinetic studies were carried out using 10 weeks old CD-1 mice. Structure 2 and Structure 3 were injected ip, 3 mg/kg and 10 mg/kg, respectively, at 8 time points (0, 0.25, 0.5, 1, 2, 4, 8 and 24 hours post-dose). Blood was collected from 3 animals/time point and concentrations of Structure 2 in plasma determined using LC/MS.
compound,measurement,setting,value
"Cc1nc(-c2ccc(CNC(=O)c3cc(CC(C)C)nn3C)cc2)no1 [Structure 2, 3-isobutyl-1-methyl-N-(4-(5-methyl-1,2,4-oxadiazol-3-yl)benzyl)-1H-pyrazole-5-carboxamide]",body weight or grooming habits versus dosing vehicle treated animals,[1],no statistically significant difference
same,clinical chemistry changes versus dosing vehicle treated animals,[1],no significant clinical chemistry changes
same,ALB,[1]; Day 6,3.88 ± 0.30 g/dL
same,ALP,[1]; Day 6,66.50 ± 8.80 U/L
same,ALT,[1]; Day 6,59.00 ± 32.50 U/L
same,AMY,[1]; Day 6,871.50 ± 74.70 U/L
same,BUN,[1]; Day 6,18.25 ± 4.10 mg/dL
same,CRE,[1]; Day 6,0.34 ± 0.10 mg/dL
same,Ca^++,[1]; Day 6,9.43 ± 0.40 mg/dL
same,GLOB,[1]; Day 6,1.23 ± 0.10 g/dL
same,GLU,[1]; Day 6,234.25 ± 31.70 mg/dL
same,GRA,[1]; Day 6,1.23 ± 0.20 10^9/l
same,GRA (%),[1]; Day 6,19.03 ± 3.70%
same,HCT,[1]; Day 6,44.34 ± 4.60%
same,HGB,[1]; Day 6,15.23 ± 1.70 g/dL
same,K^+,[1]; Day 6,5.35 ± 0.40 mmol/L
same,LYM,[1]; Day 6,5.17 ± 1.80 10^9/l
same,LYM (%),[1]; Day 6,76.18 ± 3.50%
same,MCH,[1]; Day 6,16.15 ± 0.40 pg
same,MCHC,[1]; Day 6,34.35 ± 1.30 g/dL
same,MCV,[1]; Day 6,47.00 ± 2.40 fL
same,MON,[1]; Day 6,0.33 ± 0.10 10^9/l
same,MON (%),[1]; Day 6,4.85 ± 0.40%
same,MPV,[1]; Day 6,7.10 ± 0.60 fL
same,NA^+,[1]; Day 6,147.00 ± 0.80 mmol/L
same,PCT,[1]; Day 6,0.31 ± 0.10%
same,PDWc,[1]; Day 6,33.08 ± 3.40%
same,PHOS,[1]; Day 6,8.13 ± 1.00 mg/dL
same,PLT,[1]; Day 6,448.50 ± 193.10 10^9/l
same,RBC,[1]; Day 6,9.44 ± 1.00 10^12/l
same,RDWc,[1]; Day 6,17.40 ± 0.40%
same,TBIL,[1]; Day 6,0.43 ± 0.00 mg/dL
same,TP,[1]; Day 6,5.08 ± 0.20 g/dL
same,WBC,[1]; Day 6,6.72 ± 2.00 10^9/l
same,IC50,[2],1.3 µM
same,IC50,[3],0.055 µM
same,Vd/F,"[4]; CD-1, mouse, plasma, plasma, read-out: Vz/F",0.532 L/kg
same,mean resident times (MRT),[4],approximately one to two
same,AUCINF,[4]; plasma,10.92 (Microgram * Hour)/mL
same,AUC_%Extrap,[4]; plasma,1.92%
same,AUClast,[4]; plasma,10.71 (Microgram * Hour)/mL
same,CI/F,[4]; plasma,4.58 mL/min/kg
same,Concentrationmax,[4]; plasma,5.74 Microgram/mL
same,Lambda_z,[4]; plasma,0.53 h⁻¹
same,MRTINF,[4]; plasma,2.15 h
same,MRTlast,[4]; plasma,2.00 h
same,Timelast,[4]; plasma,8.00 h
same,concentration at 8 Hour,"[4]; mouse, plasma, read-out: Concentrationlast",110 ng/mL
